Test results: ChEMBL document CHEMBL1201862, “PubChem BioAssay data set” (2004)
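48-hour exposure; five concentrations; linearly interpolated endpoints. GI50 is the concentration that inhibits growth by half.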 Activity calls are given as the source filed them. No stated cut-off is given here; in the data, active = GI50 up to about 1.1 µM and inactive = higher.

Experiments:
Experiment in all cases: NCI tumour cell line growth inhibition, 48 h
IGROV-1 = test system: IGROV-1
COLO 205 = test system: COLO 205
HOP-62 = test system: HOP-62
HT-29 = test system: HT-29
SNB-19 = test system: SNB-19
TK-10 = test system: TK-10
UACC-62 = test system: UACC-62
SK-MEL-2 = test system: SK-MEL-2
RPMI-8226 = test system: RPMI-8226
OVCAR-8 = test system: OVCAR-8
MOLT-4 = test system: MOLT-4
SW-620 = test system: SW-620
ACHN = test system: ACHN
786-0 = test system: 786-0
DMS-273 = test system: DMS-273
K562 = test system: K562
NCI-H226 = test system: NCI-H226
SK-OV-3 = test system: SK-OV-3
Hs-578T = test system: Hs-578T
T47D = test system: T47D

Measured: GI50

COC(=O)C1=C(C(=O)OC)C23CC1C1C(C(=O)OC)=C(C(=O)OC)C12C1C=CC3C2C(=O)OC(=O)C21 (centres undefined)
inactive: IGROV-1 59 µM | COLO 205 28.3 µM | HOP-62 > 100 µM | HT-29 68.7 µM | SNB-19 62.1 µM | TK-10 > 100 µM | UACC-62 31.5 µM | SK-MEL-2 35 µM | RPMI-8226 32.3 µM | OVCAR-8 48.3 µM | MOLT-4 38.6 µM | SW-620 37.5 µM | ACHN 53.5 µM | 786-0 94.2 µM | DMS-273 36.6 µM | K562 24 µM

CC(=O)Nc1ccc(C(=O)NN2C(=O)C(Cl)C2c2ccccc2)cc1 (centres undefined)
inactive: IGROV-1 > 100 µM | COLO 205 > 100 µM | HOP-62 > 100 µM | HT-29 > 100 µM | SNB-19 > 100 µM | TK-10 > 100 µM | UACC-62 > 100 µM | SK-MEL-2 > 100 µM | NCI-H226 > 100 µM | OVCAR-8 > 100 µM | MOLT-4 > 100 µM | SW-620 > 100 µM | ACHN > 100 µM | SK-OV-3 > 100 µM | 786-0 > 100 µM | DMS-273 > 100 µM | K562 > 100 µM

O=c1cc(N2CCNCC2)nc2ccccn12
inactive: IGROV-1 > 100 µM | COLO 205 > 100 µM | HOP-62 > 100 µM | HT-29 > 100 µM | SNB-19 > 100 µM | TK-10 > 100 µM | UACC-62 > 100 µM | SK-MEL-2 > 100 µM | Hs-578T > 100 µM | RPMI-8226 > 100 µM | NCI-H226 > 100 µM | OVCAR-8 > 100 µM | MOLT-4 > 100 µM | SW-620 > 100 µM | ACHN > 100 µM | T47D > 100 µM | SK-OV-3 > 100 µM | 786-0 > 100 µM | K562 > 100 µM

Cn1c(=O)c2c(nc(NCCCCl)n2CC(=O)O)n(C)c1=O
inactive: IGROV-1 > 100 µM | COLO 205 > 100 µM | HOP-62 > 100 µM | HT-29 > 100 µM | SNB-19 > 100 µM | TK-10 > 100 µM | UACC-62 > 100 µM | SK-MEL-2 > 100 µM | Hs-578T > 100 µM | RPMI-8226 > 100 µM | NCI-H226 > 100 µM | OVCAR-8 > 100 µM | MOLT-4 2.74 µM | SW-620 > 100 µM | ACHN > 100 µM | T47D > 100 µM | SK-OV-3 > 100 µM | 786-0 > 100 µM | K562 > 100 µM

Cc1cccc(/C=N/NC(=S)NCc2ccccn2)n1
inactive: IGROV-1 24 µM | COLO 205 36.1 µM | HOP-62 22.2 µM | HT-29 27.7 µM | SNB-19 47.5 µM | TK-10 99.3 µM | UACC-62 17.7 µM | SK-MEL-2 > 100 µM | Hs-578T > 93.5 µM | RPMI-8226 44.6 µM | NCI-H226 29.3 µM | OVCAR-8 32.1 µM | MOLT-4 16.5 µM | SW-620 22.1 µM | ACHN 10.4 µM | T47D 31 µM | SK-OV-3 28.3 µM | 786-0 17.9 µM | K562 36.1 µM

CN1C(=O)N/C(=C\c2ccc(S(=O)(=O)N/N=C\C(O)C(O)C(O)CO)cc2)C1=O (centres undefined)
inactive: IGROV-1 > 100 µM | COLO 205 > 100 µM | HOP-62 > 100 µM | HT-29 > 100 µM | SNB-19 > 100 µM | TK-10 > 100 µM | UACC-62 > 100 µM | SK-MEL-2 > 100 µM | Hs-578T > 100 µM | RPMI-8226 > 100 µM | NCI-H226 > 10 µM | OVCAR-8 > 100 µM | MOLT-4 > 100 µM | SW-620 > 100 µM | ACHN > 100 µM | T47D > 100 µM | SK-OV-3 > 100 µM | 786-0 > 100 µM | K562 > 100 µM
